Measurements from ChEMBL document CHEMBL5724806, “Unraveling interindividual differences and functional consequences of gut microbial metabolism of immunosuppressants” (2024).

Key:
Type in all cases: ADME
[1] = The drug is tested on Lactobacillus fermentum strain: DSM20052 for biotransformation under microaerobic condition. The drug concentrations were measured over 6 timepoints collected between 0 and 12 hours of incubation by liquid-chromatography-coupled mass spectrometry (LC–MS); design: dose 5 uM, timepoint 0, 1.5, 3, 6, 9, 12 hours; conditions: limosilactobacillus fermentum, 5 µM
[2] = (§1) The drug is tested on the gut metagenome community of T-01 with ENA study accession number: PRJEB31790 for biotransformation under anaerobic condition. The drug concentrations were measured over 7 timepoints collected between 0 and 12 hours of incubation by liquid-chromatography-coupled mass spectrometry (LC–MS); design: dose 5 uM, timepoint 0, 0.75, 1.5, 3, 6, 9, 12 hours; conditions: 5 µM
[3] = The drug is tested on Odoribacter splanchnicus strain: DSM20712 for biotransformation under anaerobic condition. The drug concentrations were measured over 6 timepoints collected between 0 and 12 hours of incubation by liquid-chromatography-coupled mass spectrometry (LC–MS); design: dose 5 uM, timepoint 0, 1.5, 3, 6, 9, 12 hours; conditions: 5 µM
[4] = The drug is tested on Coprococcus comes strain: ATCC27758 for biotransformation under anaerobic condition. The drug concentrations were measured over 6 timepoints collected between 0 and 12 hours of incubation by liquid-chromatography-coupled mass spectrometry (LC–MS); design: dose 5 uM, timepoint 0, 1.5, 3, 6, 9, 12 hours; conditions: 5 µM
[5] = The drug is tested on Lactobacillus reuteri strain: DSM20016 for biotransformation under anaerobic condition. The drug concentrations were measured over 6 timepoints collected between 0 and 12 hours of incubation by liquid-chromatography-coupled mass spectrometry (LC–MS); design: dose 5 uM, timepoint 0, 1.5, 3, 6, 9, 12 hours; conditions: limosilactobacillus reuteri, 5 µM
[6] = The drug is tested on Clostridium ramosum strain: DSM1402 for biotransformation under anaerobic condition. The drug concentrations were measured over 6 timepoints collected between 0 and 12 hours of incubation by liquid-chromatography-coupled mass spectrometry (LC–MS); design: dose 5 uM, timepoint 0, 1.5, 3, 6, 9, 12 hours; conditions: thomasclavelia ramosa, 5 µM
[7] = The drug is tested on Bacteroides ovatus strain: ATCC 8483 for biotransformation under anaerobic condition. The drug concentrations were measured over 6 timepoints collected between 0 and 12 hours of incubation by liquid-chromatography-coupled mass spectrometry (LC–MS); design: dose 5 uM, timepoint 0, 1.5, 3, 6, 9, 12 hours; conditions: 5 µM
[8] = as §1, with “P-03” for “T-01”, “microaerobic” for “anaerobic”; design: dose 5 uM, timepoint 0, 0.75, 1.5, 3, 6, 9, 12 hours; conditions: 5 µM
[9] = The drug is tested on Alloscardovia omnicolens strain: DSM21503 for biotransformation under microaerobic condition. The drug concentrations were measured over 6 timepoints collected between 0 and 12 hours of incubation by liquid-chromatography-coupled mass spectrometry (LC–MS); design: dose 5 uM, timepoint 0, 1.5, 3, 6, 9, 12 hours; conditions: 5 µM
[10] = as §1, with “A-06” for “T-01”, “microaerobic” for “anaerobic”; design: dose 5 uM, timepoint 0, 0.75, 1.5, 3, 6, 9, 12 hours; conditions: 5 µM
[11] = The drug is tested on Ruminococcus gnavus strain: ATCC29149 for biotransformation under anaerobic condition. The drug concentrations were measured over 6 timepoints collected between 0 and 12 hours of incubation by liquid-chromatography-coupled mass spectrometry (LC–MS); design: dose 5 uM, timepoint 0, 1.5, 3, 6, 9, 12 hours; conditions: mediterraneibacter gnavus, 5 µM
[12] = The drug is tested on Escherichia coli strain: DSM27469 for biotransformation under anaerobic condition. The drug concentrations were measured over 6 timepoints collected between 0 and 12 hours of incubation by liquid-chromatography-coupled mass spectrometry (LC–MS); design: dose 5 uM, timepoint 0, 1.5, 3, 6, 9, 12 hours; conditions: 5 µM
[13] = The drug is tested on Streptococcus mitis strain: DSM12643 for biotransformation under microaerobic condition. The drug concentrations were measured over 6 timepoints collected between 0 and 12 hours of incubation by liquid-chromatography-coupled mass spectrometry (LC–MS); design: dose 5 uM, timepoint 0, 1.5, 3, 6, 9, 12 hours; conditions: 5 µM
[14] = as §1, with “A-07” for “T-01”, “microaerobic” for “anaerobic”; design: dose 5 uM, timepoint 0, 0.75, 1.5, 3, 6, 9, 12 hours; conditions: 5 µM
[15] = The drug is tested on Gemella morbillorum strain: DSM20572 for biotransformation under anaerobic condition. The drug concentrations were measured over 6 timepoints collected between 0 and 12 hours of incubation by liquid-chromatography-coupled mass spectrometry (LC–MS); design: dose 5 uM, timepoint 0, 1.5, 3, 6, 9, 12 hours; conditions: 5 µM
[16] = The drug is tested on Eubacterium eligens strain: DSM3376 for biotransformation under anaerobic condition. The drug concentrations were measured over 6 timepoints collected between 0 and 12 hours of incubation by liquid-chromatography-coupled mass spectrometry (LC–MS); design: dose 5 uM, timepoint 0, 1.5, 3, 6, 9, 12 hours; conditions: lachnospira eligens, 5 µM
[17] = as §1, with “P-01” for “T-01”, “microaerobic” for “anaerobic”; design: dose 5 uM, timepoint 0, 0.75, 1.5, 3, 6, 9, 12 hours; conditions: 5 µM
[18] = as §1, with “A-07” for “T-01”; design: dose 5 uM, timepoint 0, 0.75, 1.5, 3, 6, 9, 12 hours; conditions: 5 µM
[19] = The drug is tested on Alloscardovia omnicolens strain: DSM21503 for biotransformation under anaerobic condition. The drug concentrations were measured over 6 timepoints collected between 0 and 12 hours of incubation by liquid-chromatography-coupled mass spectrometry (LC–MS); design: dose 5 uM, timepoint 0, 1.5, 3, 6, 9, 12 hours; conditions: 5 µM
[20] = as §1, with “P-04” for “T-01”, “microaerobic” for “anaerobic”; design: dose 5 uM, timepoint 0, 0.75, 1.5, 3, 6, 9, 12 hours; conditions: 5 µM
[21] = The drug is tested on Gemella haemolysans strain: DSM107751 for biotransformation under anaerobic condition. The drug concentrations were measured over 6 timepoints collected between 0 and 12 hours of incubation by liquid-chromatography-coupled mass spectrometry (LC–MS); design: dose 5 uM, timepoint 0, 1.5, 3, 6, 9, 12 hours; conditions: 5 µM
[22] = The drug is tested on Streptococcus salivarius strain: DSM20560 for biotransformation under microaerobic condition. The drug concentrations were measured over 6 timepoints collected between 0 and 12 hours of incubation by liquid-chromatography-coupled mass spectrometry (LC–MS); design: dose 5 uM, timepoint 0, 1.5, 3, 6, 9, 12 hours; conditions: 5 µM
[23] = as §1, with “A-01” for “T-01”, “microaerobic” for “anaerobic”; design: dose 5 uM, timepoint 0, 0.75, 1.5, 3, 6, 9, 12 hours; conditions: 5 µM
[24] = The drug is tested on Eubacterium hallii strain: DSM3353 for biotransformation under anaerobic condition. The drug concentrations were measured over 6 timepoints collected between 0 and 12 hours of incubation by liquid-chromatography-coupled mass spectrometry (LC–MS); design: dose 5 uM, timepoint 0, 1.5, 3, 6, 9, 12 hours; conditions: anaerobutyricum hallii, 5 µM
[25] = The drug is tested on Akkermansia muciniphila strain: DSM22959 for biotransformation under anaerobic condition. The drug concentrations were measured over 6 timepoints collected between 0 and 12 hours of incubation by liquid-chromatography-coupled mass spectrometry (LC–MS); design: dose 5 uM, timepoint 0, 1.5, 3, 6, 9, 12 hours; conditions: 5 µM
[26] = The drug is tested on Streptococcus salivarius strain: DSM20560 for biotransformation under anaerobic condition. The drug concentrations were measured over 6 timepoints collected between 0 and 12 hours of incubation by liquid-chromatography-coupled mass spectrometry (LC–MS); design: dose 5 uM, timepoint 0, 1.5, 3, 6, 9, 12 hours; conditions: 5 µM
[27] = as §1, with “A-05” for “T-01”, “microaerobic” for “anaerobic”; design: dose 5 uM, timepoint 0, 0.75, 1.5, 3, 6, 9, 12 hours; conditions: 5 µM
[28] = as §1, with “A-04” for “T-01”; design: dose 5 uM, timepoint 0, 0.75, 1.5, 3, 6, 9, 12 hours; conditions: 5 µM
[29] = The drug is tested on Bacteroides xylanisolvens strain: HM 722 for biotransformation under anaerobic condition. The drug concentrations were measured over 6 timepoints collected between 0 and 12 hours of incubation by liquid-chromatography-coupled mass spectrometry (LC–MS); design: dose 5 uM, timepoint 0, 1.5, 3, 6, 9, 12 hours; conditions: 5 µM

| Bacterial Biotransformation [1] | Bacterial Biotransformation [2] | Bacterial Biotransformation [3] | Bacterial Biotransformation [4] | Bacterial Biotransformation [5] | Bacterial Biotransformation [6] | Bacterial Biotransformation [7] | Bacterial Biotransformation [8] | Bacterial Biotransformation [9] | Bacterial Biotransformation [10] | Bacterial Biotransformation [11] | Bacterial Biotransformation [12] | Bacterial Biotransformation [13] | Bacterial Biotransformation [14] | Bacterial Biotransformation [15] | Bacterial Biotransformation [16] | Bacterial Biotransformation [17] | Bacterial Biotransformation [18] | Bacterial Biotransformation [19] | Bacterial Biotransformation [20] | Compound | also measured |
| --- | --- | --- | --- | --- | --- | --- | --- | --- | --- | --- | --- | --- | --- | --- | --- | --- | --- | --- | --- | --- | --- |
| Compound NOT metabolized | Compound metabolized | Compound NOT metabolized | Compound NOT metabolized | Compound NOT metabolized | Compound NOT metabolized | Compound NOT metabolized | Compound metabolized | Compound NOT metabolized | Compound metabolized | Compound metabolized | Compound NOT metabolized | Compound NOT metabolized | Compound metabolized | Compound NOT metabolized | Compound NOT metabolized | Compound metabolized | Compound metabolized | Compound NOT metabolized | Compound metabolized | C[C@]12CCC(=O)C=C1CC[C@@H]1[C@@H]2[C@@H](O)C[C@@]2(C)[C@H]1CC[C@]2(O)C(=O)CO [HYDROCORTISONE] | Bacterial Biotransformation [21]: Compound NOT metabolized; Bacterial Biotransformation [22]: Compound metabolized; Bacterial Biotransformation [23]: Compound metabolized; Bacterial Biotransformation [24]: Compound NOT metabolized; Bacterial Biotransformation [25]: Compound NOT metabolized; Bacterial Biotransformation [26]: Compound NOT metabolized; Bacterial Biotransformation [27]: Compound metabolized; Bacterial Biotransformation [28]: Compound metabolized; Bacterial Biotransformation [29]: Compound NOT metabolized |
| Compound NOT metabolized | Compound NOT metabolized | Compound NOT metabolized | Compound NOT metabolized | Compound NOT metabolized | Compound NOT metabolized | Compound NOT metabolized | Compound NOT metabolized | Compound NOT metabolized | Compound metabolized | Compound NOT metabolized | Compound NOT metabolized | Compound NOT metabolized | Compound metabolized | Compound NOT metabolized | Compound NOT metabolized | Compound NOT metabolized | Compound metabolized | Compound NOT metabolized | Compound NOT metabolized | C[C@@H]1C[C@H]2[C@@H]3CCC4=CC(=O)C=C[C@]4(C)[C@@]3(F)[C@@H](O)C[C@]2(C)[C@@]1(O)C(=O)CO [DEXAMETHASONE] | Bacterial Biotransformation [21]: Compound NOT metabolized; Bacterial Biotransformation [22]: Compound NOT metabolized; Bacterial Biotransformation [23]: Compound NOT metabolized; Bacterial Biotransformation [24]: Compound NOT metabolized; Bacterial Biotransformation [25]: Compound NOT metabolized; Bacterial Biotransformation [26]: Compound NOT metabolized; Bacterial Biotransformation [27]: Compound NOT metabolized; Bacterial Biotransformation [28]: Compound metabolized; Bacterial Biotransformation [29]: Compound NOT metabolized |
| Compound NOT metabolized | Compound NOT metabolized | Compound NOT metabolized | Compound metabolized | Compound NOT metabolized | Compound NOT metabolized | Compound NOT metabolized | Compound NOT metabolized | Compound NOT metabolized | Compound metabolized | Compound NOT metabolized | Compound NOT metabolized | Compound NOT metabolized | Compound metabolized | Compound metabolized | Compound metabolized | Compound NOT metabolized | Compound metabolized | Compound metabolized | Compound NOT metabolized | CO[C@H]1C[C@@H]2CC[C@@H](C)[C@@](O)(O2)C(=O)C(=O)N2CCCC[C@H]2C(=O)O[C@H]([C@H](C)C[C@@H]2CC[C@@H](O)[C@H](OC)C2)CC(=O)[C@H](C)/C=C(\C)[C@@H](O)[C@@H](OC)C(=O)[C@H](C)C[C@H](C)/C=C/C=C/C=C/1C [SIROLIMUS] | Bacterial Biotransformation [21]: Compound metabolized; Bacterial Biotransformation [22]: Compound NOT metabolized; Bacterial Biotransformation [23]: Compound NOT metabolized; Bacterial Biotransformation [24]: Compound metabolized; Bacterial Biotransformation [25]: Compound NOT metabolized; Bacterial Biotransformation [26]: Compound metabolized; Bacterial Biotransformation [27]: Compound metabolized; Bacterial Biotransformation [28]: Compound metabolized; Bacterial Biotransformation [29]: Compound NOT metabolized |
